Compound | melting point [°C]
CCc1ccnc(C(=O)c2[nH]c3cc(Cl)ccc3c2CC(=O)O)c1F | 193 to 194
CC(=O)c1c(-c2ccc(Cl)cc2)c(-c2ccc(Cl)cc2)nn(CCC2OC(CO)C(O)C(O)C2O)c1=O (centres undefined) | 96 to 122
CCCCCCCCCCCOc1ccc(-c2ccc(OCC(C)OC(=O)CC(C)C)cc2)cc1 (centres undefined) | 65.4 to 66.5
O=C1c2ccccc2C(=O)N1Oc1ccc([N+](=O)[O-])cc1C(F)(F)F | 190
CC(C)[C@H](NC(=O)c1ccc(Cn2nnc(-c3ccc(OC(=O)C(C)(C)C)cc3)n2)cc1)C(=O)OCc1ccccc1 | 157 to 159
COc1cc(CO)cc2c1OCO2 | 66 to 67
Cc1ccc(C(=O)COc2cc(C)cc(C)c2C)cc1 | 94 to 95
Cc1cc(-c2cc(C(F)F)n3ncc(C(=O)O)c3n2)ccc1Cl | 238
CC(=O)OC1CCC2C3CCC4=CC(=O)C(I)CC4(C)C3CCC12C (centres undefined) | 92
CCOC(=O)c1ncc(-c2cccs2)s1 | 68 to 69
CCOC(=O)C1=C(c2ccccc2)N(c2ccccc2)C(=O)C1C(=O)c1ccccc1 (centres undefined) | 137 to 139
COC(=O)CCc1cc2cc(C(F)(F)F)ccc2n1S(=O)(=O)c1ccc2ncsc2c1 | 130 to 132
Cn1c(=O)c([N+](=O)[O-])c(O)c2ccccc21 | 193
COc1ccc(C(CO)CNC(=O)C(N)=O)cc1OC1CCCC1 (centres undefined) | 176
CC1N=C(c2cccnc2)NC1=O (centres undefined) | 238 to 241
COCOC1=C(C(=O)OC)CC(C#N)(c2ccc(OC)c(OCC3CC3)c2)CC1 (centres undefined) | 98 to 99
Cc1ccccc1OCC(=O)Nc1ccc(C(=O)N2CCCCc3ccccc32)cc1 | 172 to 175
CC(C)(C)OC(=O)NCCC(=O)NCc1cccc2c1CN(C1CCC(=O)NC1=O)C2=O (centres undefined) | 203 to 205
COC(=O)NC(C)(C)c1ccc(CBr)cc1 | 74 to 76
CC1(C)CCC(C)(C)c2cc(C(O)C(=O)Nc3ccc(C(=O)O)cc3)ccc21 (centres undefined) | 220 to 221

Compound | melting point [°C]
CN(CCC#N)CCc1coc(-c2cc(C(C)(C)C)c(O)c(C(C)(C)C)c2)n1 | 104 to 105
Cc1ccc(C(N)=O)cc1F | 161 to 163
Cc1cc(C(=O)c2ccc(C(=O)c3cc(C)c(OCC4CO4)c(C)c3)cc2)cc(C)c1OCC1CO1 (centres undefined) | 164 to 170
O=C(O)c1cc2ccc(Cl)cc2[nH]c1=O | 317 to 318
CSc1ccc(C=C2c3ccc(F)cc3CC2C)cc1 (centres undefined) | 67 to 70
CC(=O)Sc1ccc(I)cc1 | 56 to 57
CC(C)(OCc1nn(Cc2ccccc2)c2ccccc12)C(=O)NN | 92 to 93
CCN(CC)c1ccc(C(C)=O)cc1S(N)(=O)=O | 103 to 105
C=C1COc2ccc(C(C)=O)cc2C(S(=O)(=O)c2ccccc2)C1 (centres undefined) | 124 to 125
ClCC1OCC(OCc2ccccc2)CO1 (centres undefined) | 38 to 39
O=C(O)CCCN(C(=O)c1ccc(Cl)cc1)c1ccccc1-c1ccccc1 | 135 to 137
CCCC(=O)c1sc(NC(=O)c2ccncc2)nc1-c1ccco1 | 191 to 194
O=S1(=O)N=CN(C2CCCCCC2)c2cc(Cl)c(Cl)cc21 | 222 to 224
CNC(=O)[C@@H](C[C@H](O)[C@H](CC1CCCCC1)NC(=O)[C@H](Cc1cscn1)NC(=O)OC(C)(C)C)C(C)C | 183 to 185
CCC1(CC(=O)O)OCCc2c1[nH]c1ccc(OCc3ccccc3)cc21 (centres undefined) | 163 to 165
c1cnc2c(OCCn3ccc4ccc5c(c43)CCNCC5)cccc2c1 | 129 to 132
COc1ccc(-c2[nH]nc3c2C(=O)c2c(NC(=O)C(C)C)cccc2-3)cc1 | 288
Cc1noc([C@@]2(C)CC[C@@H](NCC(=O)N3C[C@@H](F)C[C@H]3C#N)C2(C)C)n1 | 137 to 141
O=C1NC(=O)C(Cc2ccc(OCCON=Cc3ccc4ccccc4n3)cc2)S1 (centres undefined) | 164 to 166

Source: a melting point compilation (Tetko et al.; mined from patent text by program, amines drawn as free bases though some values may be those of a salt)
